# Experimental data taken from patent publication US8629158B2, “Azabicycloalkane-indole and azabicycloalkane-pyrrolo-pyridine MCH-1 antagonists, methods of making, and use thereof” (Albany Molecular Research, Inc., priority 2009, dated 2014).
# Where a name gives a salt, the structure may show the parent alone. Read-outs that look alike come from different tables or passages of the source.
# Experiments:
# human MCH-1 receptor = human MCH-1 receptor (Homo sapiens (Human), UniProt Q99705); experiment: Binding Assay for Human Melanin-Concentrating Hormone (MCH-1) Receptor (radioligand displacement, CHO-K1 membranes); conditions: membranes from CHO-K1 cells expressing human MCH1 receptor, [3H]-labeled radioligand, Ki from IC50 by Cheng Prusoff
# Experimental: Evaluation of the affinity of compounds for the human MCH-1 receptor was accomplished using 4-(3,4,5-tritritiumbenzyloxy)-1-(1-(2-(pyrrolidin-1-yl)ethyl)-1H-indazol-5-yl)pyridin-2(1H)-one and membranes prepared from stable CHO-K1 cells expressing the human MCH1 receptor obtained from Euroscreen (Batch 1138). Cell membrane homogenates (8.92 μg protein) were incubated for 60 min at 25° C. with […] of the [^3H]-labeled compound in the absence or presence of the test compound in 50 mM Tris-HCl buffer, pH 7.4. Nonspecific binding was determined in the presence of 50 μM 1-(5-(4-cyanophenyl)bicyclo[3.1.0]hexan-2-yl)-3-(4-fluoro-3-(trifluoromethyl)phenyl)-1-(3-(4-methylpiperazin-1-yl)propyl)urea. Following incubation, the samples were filtered rapidly under vacuum through Skatron 11731 filters, pre-soaked in 0.5% polyethylenimine, and washed with ice-cold 50 mM Tris-HCl buffer, pH 7.4, (wash setting 9,9,0) using a Skatron cell harvester. The filters were counted for radioactivity in a liquid scintillation counter (Tri-Carb 2100TR, Packard) using a scintillation cocktail (Ultima Gold MV, Perkin Elmer).
# The results are expressed as a percent inhibition of the control radioligand specific binding. The IC50 value (concentration causing a half-maximal inhibition of control specific binding) and Hill coefficient (nH) were determined by non-linear regression analysis of the competition curve using Hill equation curve fitting. The inhibition constant (Ki) was calculated from the Cheng Prusoff equation: (Ki=IC50/(1+(L/KD)), where L=concentration of radioligand in the assay, and KD=affinity of the radioligand for the receptor.
# human MCH-1 receptor, sequence (Q99705 whole entry): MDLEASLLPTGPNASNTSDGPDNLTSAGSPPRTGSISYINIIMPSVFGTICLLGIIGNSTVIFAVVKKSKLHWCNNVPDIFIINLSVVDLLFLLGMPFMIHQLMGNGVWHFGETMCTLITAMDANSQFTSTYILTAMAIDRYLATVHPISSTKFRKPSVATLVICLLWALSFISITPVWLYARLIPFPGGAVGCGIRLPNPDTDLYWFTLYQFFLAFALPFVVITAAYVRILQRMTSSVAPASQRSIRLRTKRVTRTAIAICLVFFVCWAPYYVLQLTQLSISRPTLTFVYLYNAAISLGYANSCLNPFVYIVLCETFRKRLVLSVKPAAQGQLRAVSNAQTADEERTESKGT
SMILES,Ki (human MCH-1 receptor; read-out: MCH-1 Ki) [nM],also measured
"Cn1c2c(c3ccc(-n4ccc(-c5ccc(C(F)(F)F)nc5)cc4=O)cc31)C1CCC(C2)N1 (stereo not shown) (as salt: hydrochloride) [Example 5, 1-(5-Methyl-5,6,7,8,9,10-hexahydro-7,10-iminocyclohept[b]indol-3-yl)-4-(6-(trifluoromethyl)pyridin-3-yl)pyridin-2(1H)-one dihydrochloride]",,melting point: 228 to 233 °C
"Cn1c2c(c3ccc(-n4ccc(OCc5ccc(F)cn5)cc4=O)cc31)C1CCC(C2)N1 (stereo not shown) (as salt: hydrochloride) [Example 6, 4-((5-Fluoropyridin-2-yl)methoxy)-1-(5-methyl-5,6,7,8,9,10-hexahydro-7,10-iminocyclohept[b]indol-3-yl)pyridin-2(1H)-one dihydrochloride]",,melting point: 180 to 190 °C
"Cc1ccc(-c2ccn(-c3ccc4c5c(n(C)c4c3)CC3CCC5N3)c(=O)c2)cn1 (single isomer, unassigned; enantiomer b) [Example 35, 1-(5-Methyl-5,6,7,8,9,10-hexahydro-7,10-iminocyclohept[b]indol-3-yl)-4-(6-methylpyridin-3-yl)-pyridin-2(1H)-one hydrochloride (Enantiomer B)]",59,
"Cn1c2c(c3ccc(-n4ccc(-c5ccc(C(F)(F)F)nc5)cc4=O)cc31)C1CCC(C2)N1 (single isomer, unassigned; enantiomer b) [Example 36, 1-(5-Methyl-5,6,7,8,9,10-hexahydro-7,10-iminocyclohept[b]indol-3-yl)-4-(6-(trifluoromethyl)pyridin-3-yl)pyridin-2(1H)-one hydrochloride (Enantiomer B)]",,Ki (human MCH-1 receptor; MCH-1 Ki (nM)): 5.3 nM
"Cn1c2c(c3ccc(-n4ccc(OCc5ccc(C(F)(F)F)nc5)cc4=O)cc31)C1CCC(C2)N1 (single isomer, unassigned; enantiomer b) [Example 38, 1-(5-Methyl-5,6,7,8,9,10-hexahydro-7,10-iminocyclohept[b]indol-3-yl)-4-((6-(trifluoromethyl)pyridin-3-yl)methoxy)pyridin-2(1H)-one hydrochloride (Enantiomer B)]",,Ki (human MCH-1 receptor; MCH-1 Ki (nM)): 12 nM
"Cn1c2c(c3ccc(-n4ccc(OCc5ccccc5)cc4=O)cc31)C1CCC(C2)N1 (stereo not shown) [Example 2, 4-(Benzyloxy)-1-(5-methyl-5,6,7,8,9,10-hexahydro-7,10-iminocyclohept[b]indol-3-yl)pyridin-2(1H)-one hydrochloride]",10.5,
"Cn1c2c(c3ccc(-n4ccc(-c5ccc(C(F)(F)F)cn5)cc4=O)cc31)C1CCC(C2)N1 (stereo not shown) [Example 4, 1-(5-Methyl-5,6,7,8,9,10-hexahydro-7,10-iminocyclohept[b]indol-3-yl)-4-(5-(trifluoromethyl)pyridin-2-yl)pyridin-2(1H)-one dihydrochloride]",16.1,
"Cn1c2c(c3ccc(-n4ccc(-c5ccc(C(F)(F)F)nc5)cc4=O)cc31)C1CCC(C2)N1 (stereo not shown) [Example 5, 1-(5-Methyl-5,6,7,8,9,10-hexahydro-7,10-iminocyclohept[b]indol-3-yl)-4-(6-(trifluoromethyl)pyridin-3-yl)pyridin-2(1H)-one dihydrochloride]",6.5,
"Cn1c2c(c3ccc(-n4ccc(OCc5ccc(F)cn5)cc4=O)cc31)C1CCC(C2)N1 (stereo not shown) [Example 6, 4-((5-Fluoropyridin-2-yl)methoxy)-1-(5-methyl-5,6,7,8,9,10-hexahydro-7,10-iminocyclohept[b]indol-3-yl)pyridin-2(1H)-one dihydrochloride]",13.5,
"Cn1c2c(c3ccc(-n4ccc(-c5cnc(C(F)(F)F)nc5)cc4=O)cc31)C1CCC(C2)N1 (stereo not shown) [Example 7, 1-(5-Methyl-5,6,7,8,9,10-hexahydro-7,10-iminocyclohept[b]indol-3-yl)-4-(2-(trifluoromethyl)pyrimidin-5-yl)pyridin-2(1H)-one hydrochloride]",68.1,
"O=c1cc(OCc2ccc(F)cn2)ccn1-c1ccc2c3c([nH]c2c1)CC1CCC3N1 (stereo not shown) [Example 9, 4-((5-Fluoropyridin-2-yl)methoxy)-1-(5,6,7,8,9,10-hexahydro-7,10-iminocyclohept[b]indol-3-yl)pyridin-2(1H)-one dihydrochloride]",25.3,
"Cn1c2c(c3ccc(-n4ccc(OCc5ccc(F)cn5)cc4=O)cc31)C1CCCC(C2)N1 (stereo not shown) [Example 11, 4-((5-Fluoropyridin-2-yl)methoxy)-1-(5-methyl-6,7,8,9,10,11-hexahydro-7,11-imino-5H-cyclooct[b]indol-3-yl)pyridin-2(1H)-one dihydrochloride]",21.3,
"Cn1c2c(c3ccc(-n4ccc(OCc5ccccc5)cc4=O)cc31)C1CCCC(C2)N1 (stereo not shown) [Example 12, 4-(Benzyloxy)-1-(5-methyl-6,7,8,9,10,11-hexahydro-7,11-imino-5H-cyclooct[b]indol-3-yl)pyridin-2(1H)-one hydrochloride]",9.3,
"Cn1c2c(c3ccc(-n4ncc(OCc5ccc(F)cn5)cc4=O)cc31)C1CCCC(C2)N1 (stereo not shown) [Example 17, 5-((5-Fluoropyridin-2-yl)methoxy)-2-(5-methyl-6,7,8,9,10,11-hexahydro-7,11-imino-5H-cyclooct[b]indol-3-yl)pyridazin-3(2H)-one hydrochloride]",28,
"CC(C)N1C2CCC1c1c(n(C)c3cc(-n4ccc(OCc5ccccc5)cc4=O)ccc13)C2 (stereo not shown) [Example 28, 4-(Benzyloxy)-1-(11-isopropyl-5-methyl-5,6,7,8,9,10-hexahydro-7,10-iminocyclohept[b]indol-3-yl)pyridin-2(1H)-one hydrochloride]",12,
"CCN1C2CCCC1c1c(n(C)c3cc(-n4ccc(OCc5ccccc5)cc4=O)ccc13)C2 (stereo not shown) [Example 32, 4-(Benzyloxy)-1-(12-ethyl-5-methyl-6,7,8,9,10,11-hexahydro-7,11-imino-5H-cyclooct[b]indol-3-yl)pyridin-2(1H)-one hydrochloride]",15,
"Cn1c2c(c3ccc(-n4ccc(OCc5ccccc5)cc4=O)nc31)C1CCC(C2)N1 (stereo not shown) [Example 39, 4-(Benzyloxy)-1-(10-methyl-5,6,7,8,9,10-hexahydro-5,8-iminocyclohepta[4,5]pyrrolo[2,3-b]pyridin-2-yl)pyridin-2(1H)-one hydrochloride]",21,
"CN1C2CCC1c1c(n(C)c3nc(-n4ccc(OCc5ccccc5)cc4=O)ccc13)C2 (stereo not shown) [Example 42, 4-(Benzyloxy)-1-(10,11-dimethyl-5,6,7,8,9,10-hexahydro-5,8-iminocyclohepta[4,5]pyrrolo[2,3-b]pyridin-2-yl)pyridin-2(1H)-one hydrochloride]",27,
"Cn1c2c(c3ccc(-n4ccc(OCc5ccc(F)cn5)cc4=O)nc31)C1CCC(C2)N1 (stereo not shown) [Example 43, 4-((5-Fluoropyridin-2-yl)methoxy)-1-(10-methyl-5,6,7,8,9,10-hexahydro-5,8-iminocyclohepta[4,5]pyrrolo[2,3-b]pyridin-2-yl)pyridin-2(1H)-one hydrochloride]",38,
"Cn1c2c(c3ccc(-n4ccc(-c5ccc(C(F)(F)F)nc5)cc4=O)nc31)C1CCC(C2)N1 (stereo not shown) [Example 44, 1-(10-Methyl-5,6,7,8,9,10-hexahydro-5,8-iminocyclohepta[4,5]pyrrolo[2,3-b]pyridin-2-yl)-4-(6-(trifluoromethyl)pyridin-3-yl)pyridin-2(1H)-one hydrochloride]",110,
"Cn1c2c(c3ccc(-n4ccc(OCc5ccc(F)cc5F)cc4=O)nc31)C1CCC(C2)N1 (stereo not shown) [Example 45, 4-(2,4-Difluorobenzyloxy)-1-(10-methyl-5,6,7,8,9,10-hexahydro-5,8-iminocyclohepta[4,5]pyrrolo[2,3-b]pyridin-2-yl)pyridin-2(1H)-one hydrochloride]",26,
"Cn1c2c(c3ccc(N4CCN(CCc5ccc(Cl)cc5)CC4=O)nc31)C1CCC(C2)N1 (stereo not shown) [Example 46, 4-(4-Chlorophenethyl)-1-(10-methyl-5,6,7,8,9,10-hexahydro-5,8-iminocyclohepta[4,5]pyrrolo[2,3-b]pyridin-2-yl)-piperazin-2-one dihydrochloride]",99,
"Cn1c2c(c3ccc(-n4ccc(OCc5ccc(Cl)cc5F)cc4=O)nc31)C1CCC(C2)N1 (stereo not shown) [Example 47, 4-(4-Chloro-2-fluorobenzyloxy)-1-(10-methyl-5,6,7,8,9,10-hexahydro-5,8-iminocyclohepta[4,5]pyrrolo[2,3-b]pyridin-2-yl)pyridin-2(1H)-one hydrochloride]",14,
"Cn1c2c(c3ccc(-n4ccc(OCc5ccc(Cl)cc5Cl)cc4=O)nc31)C1CCC(C2)N1 (stereo not shown) [Example 48, 4-(2,4-Dichlorobenzyloxy)-1-(10-methyl-5,6,7,8,9,10-hexahydro-5,8-iminocyclohepta[4,5]pyrrolo[2,3-b]pyridin-2-yl)pyridin-2(1H)-one hydrochloride]",28,
"Cn1c2c(c3ccc(-n4ccc(-c5ccc(C(F)(F)F)cc5)cc4=O)nc31)C1CCC(C2)N1 (stereo not shown) [Example 50, 1-(10-Methyl-5,6,7,8,9,10-hexahydro-5,8-iminocyclohepta[4,5]pyrrolo[2,3-b]pyridin-2-yl)-4-(4-(trifluoromethyl)phenyl)pyridin-2(1H)-one hydrochloride]",19,
